# Measured values reported in PMC8524858, “Dual inhibition of αvβ6 and αvβ1 reduces fibrogenesis in lung tissue explants from patients with IPF” (Respiratory Research, 2021).
# How the values were obtained:
# human integrin αvβ1 = biological target: T1, human integrin αvβ1 (Homo sapiens, UniProt P05556+P06756); experiment: Integrin ligand-binding assay, αvβ1 (fibronectin ligand)
# T1 construct: purchased ACROBiosystems or R&D Systems IT1-H52E1 or 6579-AVB
# Protocol: (§1) Integrin ligand-binding assays were performed similar to that previously described.
# (§2) Microplates were coated with recombinant human integrins dissolved in PBS (2 µg/ml, overnight at room temperature). Following removal of the coating solution, plates were washed with PBS. Plates were blocked with 200 µL/well of blocking buffer (2% bovine serum albumin [BSA] in PBS) at 37 °C for 1 h. […] Plates were incubated for 2 h at 25 °C, washed, and incubated for 1 h with biotin-labeled anti-fibronectin or anti-LAP antibodies (for αvβ1 or αvβ6/αvβ8, respectively).
# human integrin αvβ6 = biological target: T2, human integrin αvβ6 (Homo sapiens, UniProt P06756+P18564); experiment: Integrin ligand-binding assay, αvβ6 (LAP ligand)
# T2 construct: purchased ACROBiosystems or R&D Systems IT6-H52E1 or 3817-AV
# Protocol: as §1, §2
# human integrin αvβ3 = biological target: T3, human integrin αvβ3 (Homo sapiens, UniProt P05106+P06756); experiment: Integrin ligand-binding assay, αvβ3 (vitronectin ligand)
# T3 construct: purchased R&D Systems 3050-AV
# Protocol: as §1, §2
# human integrin αvβ5 = biological target: T4, human integrin αvβ5 (Homo sapiens, UniProt P06756+P18084); experiment: Integrin ligand-binding assay, αvβ5 (vitronectin ligand)
# T4 construct: purchased R&D Systems 2528-AV
# Protocol: as §1, §2
# human integrin αvβ8 = biological target: T5, human integrin αvβ8 (Homo sapiens, UniProt P06756+P26012); experiment: Integrin ligand-binding assay, αvβ8 (LAP ligand)
# T5 construct: purchased R&D Systems 4135-AV
# Protocol: as §1, §2
# [1] = system: αvβ1-induced TGF-β activation; experiment: TGF-β co-culture assay, CHO-αv cells with MLEC luciferase reporter cells; format: cell-based, human; conditions: integrin αvβ1
# Protocol: (§3) SW-β6 cells and MLECs or CHO-αv cells and MLECs were cultured in 96-well plates with test compounds or antibodies for 20 h at 37 °C in a 5% CO2 incubator. […] Measurement of MLEC luciferase production resulting from αvβ6- or αvβ1-mediated TGF-β activation was performed using the Bright-Glo Luciferase Assay System (Promega; Madison, WI, USA) according to manufacturer’s instruction. Luminescence was quantified by a Tecan Spark 10M plate reader. IC50 curves were generated using Dotmatics software suite with five-parameter logistic curve fitting. Geometric mean IC50 was calculated for each compound from multiple independent analyses.
# [2] = biological target: T6, αvβ6-induced TGF-β activation (Homo sapiens, UniProt P06756+P18564); experiment: TGF-β co-culture assay, SW-β6 cells with MLEC luciferase reporter cells; format: cell-based; conditions: integrin αvβ6
# T6 construct: expressed in transfected cells; host or cells: SW480 cells stably transfected with β6 (SW-β6), co-cultured with MLEC reporter cells
# Protocol: as §3
# [3] = system: PCLSs prepared from bleomycin-challenged mouse lungs; experiment: Col1a1 expression in PCLSs from bleomycin-challenged mouse lungs; format: cell-based; conditions: for inhibition of collagen mRNA expression: acutely injured mouse lungs, 3 days, PLN-74809 200 nM, GSK3008348 1000 nM, CWHM-12 1000 nM (Fig. 2B); for IC50: Mus musculus, 72 h, 3 days of treatment, extrapolation from dose-response curve of combined experiments (Fig. S4), read-out: minimum concentration required to reduce Col1a1 mRNA levels by 50%; for effect on Col1a1 gene expression: chronic bleomycin-challenged mouse lungs, 7 days of treatment, nintedanib and pirfenidone at approximate clinical Cmax (Fig. 6C); for concentration for 50% reduction in collagen gene expression relative to concentration approximating Cmax: dose titrations in PCLSs from bleomycin-challenged mouse lungs
# Source text: (§4) PCLSs were generated from explanted lung tissue from patients with IPF and cultured as previously described. Mouse PCLSs were generated and cultured as previously described. Messenger ribonucleic acid (mRNA) levels in lysates prepared from snap-frozen tissue slices were quantified via NanoString PlexSet reagents and nCounter SPRINT Profiler (NanoString; Seattle, WA, USA; Additional file 1: Table S2) or TaqMan primers/probes on a Bio-Rad CFX96 thermocycler (Bio-Rad; Hercules, CA, USA; Additional file 1: Table S3).
# Mouse PCLSs were generated and cultured based on previously reported methods (E13). Briefly, mice were challenged with bleomycin (Hospira; Lake Forest, IL, USA or Teva; Toronto, ON, Canada), either acutely with a single dose (3 U/kg or 4 U/kg) or chronically with multiple doses (3 U/kg bleomycin followed by four 1 U/kg challenges at 2-week intervals). Fourteen days after the final bleomycin challenge, lungs were harvested and 200 μm-thick slices were cut using a Compresstome VF-300-0Z (Precisionary Instruments).
# (§5) Slices from each individual core (human) or mouse were distributed among the treatment groups to control for variability in the fibrotic injury within the tissue. […] After 3 or 7 days in culture, slices were washed and snap-frozen. Viability of sentinel slices on Days 0/1 and 3/7 was determined using WST-1 Cell Proliferation Reagent (Sigma 5015944001; St Louis, MO, USA).
# (§6) For all figures (except Fig. 2B, Fig. S2, and Fig. S4), snap-frozen tissue slices were incubated in one-third RLT buffer (Qiagen #79216; Venlo, Netherlands) supplemented with 2 mg/ml proteinase K (Sigma-Aldrich #3115887001; St Louis, MO, USA) at 55 °C for 2 h 45 min, with periodic vortexing to generate ribonucleic acid (RNA)-compatible tissue lysate. This lysate was incubated overnight with probes from a custom fibrosis gene panel and NanoString PlexSet reagents (Table S2). The following day, samples were analyzed on a NanoString nCounter SPRINT Profiler (NanoString; Seattle, WA, USA). Messenger RNA (mRNA) counts were normalized to housekeeping genes (GUSB, HPRT1, RPLP0, and/or POLR1B) and total mRNA counts, relative to vehicle-treated control from the same experiment, are reported.
# For Figs. 2B, S2, and S4, RNA purification and qPCR were performed by Transcriptic, Inc. (Menlo Park, CA, USA) using a proprietary automated protocol. Briefly, RNA was purified on a KingFisher Flex system (Thermo Fisher) and qPCR was performed on a Bio-Rad CFX96 (Bio-Rad; Hercules, CA, USA) with TaqMan primers/probes (Thermo Fisher) listed in Table S3. Ct values were normalized to housekeeping genes (Rn18sRn45s and Hprt) and reported as ddCT and fold change versus the vehicle-treated samples.
# [4] = system: PCLSs prepared from explanted lung tissue from patients with IPF; experiment: Fibrotic gene expression in PCLSs from IPF lung explants; format: cell-based, human
# Source text: as §4
# Human PCLSs were generated from lung tissue explants from patients with IPF undergoing transplant surgery and cultured based on previously reported methods (E7-E12). Slices of tissue (400 µm) were cut using a Compresstome VF-300-0Z (Precisionary Instruments; Natick, MA, USA).
# as §5, §6
# [5] = design: method as in PMID 25504994; conditions: patients with IPF; read-out: approximate clinical maximum observed drug concentration (Cmax); cited from earlier work
# [6] = 7 days, PLN-74809 200 nM, nintedanib 75 nM, pirfenidone 50 µM, vs DMSO (Fig. 6A)
# T6 sequence (P06756 31-1048): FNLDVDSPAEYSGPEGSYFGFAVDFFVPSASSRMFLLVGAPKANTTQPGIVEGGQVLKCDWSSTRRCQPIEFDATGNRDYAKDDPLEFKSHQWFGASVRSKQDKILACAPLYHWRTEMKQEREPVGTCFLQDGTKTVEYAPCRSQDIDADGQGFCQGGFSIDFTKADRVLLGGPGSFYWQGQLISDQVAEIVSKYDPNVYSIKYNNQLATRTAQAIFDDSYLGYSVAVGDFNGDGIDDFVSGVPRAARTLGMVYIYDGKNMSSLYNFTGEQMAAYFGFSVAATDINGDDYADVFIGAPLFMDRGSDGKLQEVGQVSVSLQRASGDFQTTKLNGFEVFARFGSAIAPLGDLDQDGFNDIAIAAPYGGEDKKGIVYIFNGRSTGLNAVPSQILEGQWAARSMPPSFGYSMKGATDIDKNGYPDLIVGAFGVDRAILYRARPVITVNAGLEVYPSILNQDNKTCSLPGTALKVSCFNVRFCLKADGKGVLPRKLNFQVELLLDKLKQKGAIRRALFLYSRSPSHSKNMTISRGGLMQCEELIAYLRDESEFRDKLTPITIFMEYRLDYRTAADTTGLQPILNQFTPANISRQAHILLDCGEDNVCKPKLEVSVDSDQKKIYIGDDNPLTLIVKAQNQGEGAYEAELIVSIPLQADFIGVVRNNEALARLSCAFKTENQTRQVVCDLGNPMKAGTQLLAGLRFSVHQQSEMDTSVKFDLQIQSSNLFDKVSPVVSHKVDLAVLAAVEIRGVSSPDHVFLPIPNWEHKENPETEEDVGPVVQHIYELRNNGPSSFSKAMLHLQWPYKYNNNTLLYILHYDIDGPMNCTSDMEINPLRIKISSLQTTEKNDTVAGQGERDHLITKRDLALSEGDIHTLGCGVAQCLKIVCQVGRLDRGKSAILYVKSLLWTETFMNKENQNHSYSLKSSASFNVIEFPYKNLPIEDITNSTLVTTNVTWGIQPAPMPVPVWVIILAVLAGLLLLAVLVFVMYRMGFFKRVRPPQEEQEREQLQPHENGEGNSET
# T6 sequence (P18564 22-788): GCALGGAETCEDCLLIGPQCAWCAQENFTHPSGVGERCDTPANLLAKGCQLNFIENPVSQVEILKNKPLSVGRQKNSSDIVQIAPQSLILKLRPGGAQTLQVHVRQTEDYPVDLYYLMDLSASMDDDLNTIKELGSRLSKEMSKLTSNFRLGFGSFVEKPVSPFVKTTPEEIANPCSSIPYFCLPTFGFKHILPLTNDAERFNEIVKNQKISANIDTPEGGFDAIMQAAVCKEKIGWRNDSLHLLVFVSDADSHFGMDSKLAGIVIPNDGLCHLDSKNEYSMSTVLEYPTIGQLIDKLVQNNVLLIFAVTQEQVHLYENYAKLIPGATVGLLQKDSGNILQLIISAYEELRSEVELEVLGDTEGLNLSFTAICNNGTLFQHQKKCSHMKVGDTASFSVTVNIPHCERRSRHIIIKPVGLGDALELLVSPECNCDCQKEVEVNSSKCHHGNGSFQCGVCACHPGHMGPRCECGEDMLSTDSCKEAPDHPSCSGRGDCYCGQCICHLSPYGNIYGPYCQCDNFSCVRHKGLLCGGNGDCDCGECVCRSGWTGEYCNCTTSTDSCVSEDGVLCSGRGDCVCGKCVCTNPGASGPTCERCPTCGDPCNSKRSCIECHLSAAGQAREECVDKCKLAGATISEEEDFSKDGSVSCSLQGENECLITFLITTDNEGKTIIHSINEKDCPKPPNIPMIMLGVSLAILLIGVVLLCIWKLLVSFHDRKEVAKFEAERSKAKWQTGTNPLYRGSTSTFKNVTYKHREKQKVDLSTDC
# T3 sequence (P06756 31-992 limits assumed): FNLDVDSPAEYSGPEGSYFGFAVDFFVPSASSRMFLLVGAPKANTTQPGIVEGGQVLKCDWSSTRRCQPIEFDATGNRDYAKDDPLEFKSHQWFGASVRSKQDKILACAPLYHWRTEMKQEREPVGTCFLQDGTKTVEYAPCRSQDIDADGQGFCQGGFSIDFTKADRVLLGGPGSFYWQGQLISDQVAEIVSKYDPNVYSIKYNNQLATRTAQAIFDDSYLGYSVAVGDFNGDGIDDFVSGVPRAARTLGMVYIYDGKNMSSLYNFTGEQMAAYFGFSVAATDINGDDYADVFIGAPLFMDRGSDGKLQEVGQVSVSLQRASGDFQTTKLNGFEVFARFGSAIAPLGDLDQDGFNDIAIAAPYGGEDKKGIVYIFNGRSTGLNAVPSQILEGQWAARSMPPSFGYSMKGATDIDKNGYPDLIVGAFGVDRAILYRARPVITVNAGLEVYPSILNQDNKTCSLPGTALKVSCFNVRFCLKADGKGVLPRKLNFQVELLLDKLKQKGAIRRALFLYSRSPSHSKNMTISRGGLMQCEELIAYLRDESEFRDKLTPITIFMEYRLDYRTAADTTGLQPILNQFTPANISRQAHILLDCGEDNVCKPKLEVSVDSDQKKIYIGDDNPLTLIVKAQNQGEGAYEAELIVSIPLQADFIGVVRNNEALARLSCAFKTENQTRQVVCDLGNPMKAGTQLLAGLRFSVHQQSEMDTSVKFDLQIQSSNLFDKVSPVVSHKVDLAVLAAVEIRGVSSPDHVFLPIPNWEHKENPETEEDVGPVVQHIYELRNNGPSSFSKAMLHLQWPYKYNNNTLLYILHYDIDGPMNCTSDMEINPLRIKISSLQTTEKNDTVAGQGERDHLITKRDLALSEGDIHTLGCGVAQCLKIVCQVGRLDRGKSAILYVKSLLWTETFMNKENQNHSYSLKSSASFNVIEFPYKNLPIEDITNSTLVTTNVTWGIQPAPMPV
# T3 sequence (P05106 27-718 limits assumed): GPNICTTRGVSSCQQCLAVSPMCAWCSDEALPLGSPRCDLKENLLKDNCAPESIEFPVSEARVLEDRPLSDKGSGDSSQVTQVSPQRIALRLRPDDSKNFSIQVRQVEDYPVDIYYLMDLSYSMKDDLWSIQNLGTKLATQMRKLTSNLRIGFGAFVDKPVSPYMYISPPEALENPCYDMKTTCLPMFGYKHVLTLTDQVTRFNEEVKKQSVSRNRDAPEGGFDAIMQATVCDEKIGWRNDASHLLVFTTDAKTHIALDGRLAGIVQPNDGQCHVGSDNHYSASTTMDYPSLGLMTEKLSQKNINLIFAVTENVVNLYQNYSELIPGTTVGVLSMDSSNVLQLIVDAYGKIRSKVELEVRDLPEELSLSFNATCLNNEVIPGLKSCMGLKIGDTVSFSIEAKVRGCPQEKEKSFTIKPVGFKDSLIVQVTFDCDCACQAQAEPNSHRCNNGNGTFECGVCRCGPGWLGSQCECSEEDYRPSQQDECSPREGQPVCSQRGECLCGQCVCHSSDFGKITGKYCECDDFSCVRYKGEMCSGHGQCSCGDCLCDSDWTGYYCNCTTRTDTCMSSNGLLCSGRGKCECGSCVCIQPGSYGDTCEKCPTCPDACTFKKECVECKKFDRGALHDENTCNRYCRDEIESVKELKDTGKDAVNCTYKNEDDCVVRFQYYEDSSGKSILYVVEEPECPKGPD
# T4 sequence (P06756 31-992 limits assumed): as the sequence (P06756 31-992 limits assumed) above
# T4 sequence (P18084 24-719 limits assumed): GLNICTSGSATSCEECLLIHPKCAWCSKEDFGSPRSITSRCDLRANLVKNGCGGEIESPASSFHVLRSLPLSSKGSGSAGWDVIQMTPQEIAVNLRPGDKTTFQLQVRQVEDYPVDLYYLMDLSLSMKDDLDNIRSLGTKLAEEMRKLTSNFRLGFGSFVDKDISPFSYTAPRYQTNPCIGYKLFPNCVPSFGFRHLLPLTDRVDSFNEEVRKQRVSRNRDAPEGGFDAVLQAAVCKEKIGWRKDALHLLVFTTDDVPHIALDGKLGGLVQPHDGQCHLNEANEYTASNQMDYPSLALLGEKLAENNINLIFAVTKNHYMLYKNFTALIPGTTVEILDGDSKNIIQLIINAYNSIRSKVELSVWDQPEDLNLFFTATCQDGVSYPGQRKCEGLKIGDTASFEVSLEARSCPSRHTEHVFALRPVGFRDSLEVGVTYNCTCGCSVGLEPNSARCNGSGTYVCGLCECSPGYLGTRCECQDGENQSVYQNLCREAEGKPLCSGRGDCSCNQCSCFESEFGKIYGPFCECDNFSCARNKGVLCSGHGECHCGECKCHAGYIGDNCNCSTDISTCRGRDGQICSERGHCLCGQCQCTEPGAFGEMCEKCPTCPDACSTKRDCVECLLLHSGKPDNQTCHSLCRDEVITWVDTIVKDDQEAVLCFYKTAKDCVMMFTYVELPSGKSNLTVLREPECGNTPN
# T1 sequence (P06756 31-992 limits assumed): as the sequence (P06756 31-992 limits assumed) above
# T1 sequence (P05556 21-728 limits assumed): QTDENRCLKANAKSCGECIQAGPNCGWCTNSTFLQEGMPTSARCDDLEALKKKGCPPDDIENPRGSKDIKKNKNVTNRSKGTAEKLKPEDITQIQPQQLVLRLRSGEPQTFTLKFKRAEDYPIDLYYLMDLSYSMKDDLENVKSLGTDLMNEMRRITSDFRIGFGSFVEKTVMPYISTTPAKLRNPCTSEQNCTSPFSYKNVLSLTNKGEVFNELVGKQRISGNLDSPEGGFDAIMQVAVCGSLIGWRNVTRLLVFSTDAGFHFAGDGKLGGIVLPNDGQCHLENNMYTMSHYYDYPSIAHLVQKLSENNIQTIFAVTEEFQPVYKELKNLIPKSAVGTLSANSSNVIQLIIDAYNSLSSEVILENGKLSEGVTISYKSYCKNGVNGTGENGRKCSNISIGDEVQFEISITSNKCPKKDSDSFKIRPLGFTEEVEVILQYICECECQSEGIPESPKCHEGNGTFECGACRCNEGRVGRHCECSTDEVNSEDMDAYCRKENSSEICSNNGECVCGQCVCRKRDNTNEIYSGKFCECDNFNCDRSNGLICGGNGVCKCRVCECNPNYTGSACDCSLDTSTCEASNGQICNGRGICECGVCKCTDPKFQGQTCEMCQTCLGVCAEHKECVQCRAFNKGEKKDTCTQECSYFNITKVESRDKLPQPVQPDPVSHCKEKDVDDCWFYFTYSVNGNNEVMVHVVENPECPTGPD
Compound,IC50 [1] [nM],inhibition of collagen mRNA expression [3],"reduction of COL1A1 mRNA expression [4, 6]",IC50 [3] [nM],effect on Col1a1 gene expression [3],concentration for 50% reduction in collagen gene expression relative to concentration approximating Cmax [3] [×],Cmax [5] [µM],other results
"CC(C)(C)c1cc(Br)cc([C@H](CC(=O)O)NC(=O)CNC(=O)c2cc(O)cc(NC3=NCC(O)CN3)c2)c1 (stereo partly shown) [CWHM-12, reference compound]",2,no additional reduction,–,–,–,–,–,IC50 (human integrin αvβ1): 1.3 nM; Fold selectivity (vs αvβ1) (human integrin αvβ1; ligand binding): 1×; IC50 (human integrin αvβ6): 6.1 nM; Fold selectivity (vs αvβ1) (human integrin αvβ6; ligand binding): 4.7×; IC50 (human integrin αvβ3): 0.7 nM; Fold selectivity (vs αvβ1) (human integrin αvβ3; ligand binding): 0.5×; IC50 (human integrin αvβ5): 5.3 nM; Fold selectivity (vs αvβ1) (human integrin αvβ5; ligand binding): 4.1×; IC50 (human integrin αvβ8): 7.3 nM; Fold selectivity (vs αvβ1) (human integrin αvβ8; ligand binding): 5.6×; Fold selectivity (vs αvβ1) ([1]; TGF-β activation): 1×; Fold selectivity (vs αvβ1) ([2]; TGF-β activation): 159×; IC50 [2]: 318 nM
"Cc1cccc(-c2[nH]ncc2-c2ccc(F)c(-c3cnn(CCO)c3)c2)n1 [Compound R-268712, reference compound]",–,–,–,–,–,–,–,"reduction of COL1A1 mRNA expression ([4]; 7-day incubation, Compound A 471 nM, 3G9 0.5 µg/ml, PLN-74809 1.82 µM, ALK5i R-268712 1 µM, vs vehicle (Fig. 1A)): ~ 80%"
"Cc1cc(C)n(-c2cccc([C@H](CC(=O)O)CN3CC[C@@H](CCc4ccc5c(n4)NCCC5)C3)c2)n1 [GSK3008348, (S)-3-(3-(3,5-Dimethyl-1 H-pyrazol-1-yl)phenyl)-4-((R)-3-(2-(5,6,7,8-tetrahydro-1,8-naphthyridin-2-yl)ethyl)pyrrolidin-1-yl)butanoic acid]",17.4,no additional reduction,–,–,–,–,–,–
COC(=O)c1ccc2c(c1)NC(=O)/C2=C(\Nc1ccc(N(C)C(=O)CN2CCN(C)CC2)cc1)c1ccccc1 [nintedanib],–,–,no effect,897,did not significantly alter,> 10,~0.075,–
Cc1ccc(=O)n(-c2ccccc2)c1 [pirfenidone],–,–,no effect,678000,did not significantly alter,> 10,~50,–
